The subject of this assay is 439559-082-T-J2-PDC spheroid viability. As to the kind of experiment: Anticancer human tumor 439559-082-T-J2-PDC patient-derived colon adenocarcinoma cell line growth inhibition [POLQ]. The settings on record: spheroids with HUVEC and MSC; for viability, T/C: stronger effect = lower value. As to the method: Multicellular complex tumor spheroid response to Polymerase (POL) inhibitors (novobiocin, ART-558, RP6685) in combination with a variety of drugs and investigational agents in selected tumor cell lines
The POL inhibitors (novobiocin, ART-558, and RP6685) were evaluated both individually and in combination with standard of care and investigational anticancer small molecules within a complex spheroid model of solid tumors. . Complex spheroids include a stromal component modeled by human endothelial cells (HUVEC) and fibroblasts modeled by human mesenchymal stem cells (MSCs). The concentration ranges selected for each drug and investigational agent were based upon clinically achievable concentrations if the clinical Cmax of the agent was known.
Compounds. The drugs and investigational agents: novobiocin (NSC847541), ART-558 (NSC835418), RP-6685 (NSC848927), peposertib (NSC802822), ceralasertib (NSC780249), elimusertib (NSC800525), camonsertib (NSC841442), AZD-1390 (NSC803789), olaparib (NSC753686), talazoparib (NSC767125), rucaparib (NSC756644), sotorasib (NSC818433), MRTX-1133 (NSC836407), SN-38 (NSC673596), topotecan (NSC609699), epotoside (NSC141540), doxorubicin (NSC123127), gemcitabine (NSC613327), 5-fluorouracil (NSC19893), paclitaxel (NSC125973), vemurafenib (NSC761431), MSA-2 (NSC828583), SN-011 (NSC837082), adavosertib (NSC754352), prexasertib (NSC758257), carboplatin (NSC241240) and oxaliplatin (NSC266046), were obtained from the National Cancer Institute (NCI) Developmental Therapeutics Program Chemical Repository (21). The FDA-approved anticancer drug set is available from the Developmental Therapeutics Program at https://dtp.cancer.gov/organization/dscb/obtaining/. […] The stock solutions were prepared in dimethyl sulfoxide (DMSO, Sigma-Aldrich, St. Louis, MO, cat. D2650), except for the platinum compounds which were prepared in saline (Quality Biological, Gaithersburg, MD, cat. 114-055-101), at 800-fold the tested concentration and stored at -70 degrees C prior to their use. All drugs and investigational agents were tested over a range starting from a high concentration at or near the clinical Cmax and decreasing in half-log increments. If the clinical Cmax for an agent had not been determined, the highest concentration tested was 10 microM, except for SN-38, which was tested at a high concentration of 1 microM.
Cell Culture. All cells were maintained in an incubator at 37 degrees C and 5% CO2 with 95% humidity. The PDC lines were cultured according to standard operating procedures established by the NCI PDMR (https://pdmr.cancer.gov). Table 3 of the manuscript, lists the cell lines along with the number of the three cell types plated to form the mct-spheroids and media for tumor cell growth. After thawing, all PDC lines, except 997537-175-T-J1-PDC and 415267-285-R-J2-PDC, were cultured in Matrigel-coated flasks prepared with a working solution of 1X Ham's F-12 nutrient mix, without supplementation (Thermo Fisher Scientific, cat. 11765054), 100 U/mL penicillin-streptomycin (Thermo Fisher Scientific, cat. 15140122), and 2.5% Matrigel (Corning Inc., Corning, NY, cat. 354248) for the first three passages. The two PDC lines 997537-175-T-J1-PDC and 415267-285-R-J2-PDC were cultured on uncoated flasks. The 857933-349-R-J2-PDC line was cultured in 6C/Colon 1B media containing advanced DMEM/F-12 (Thermo Fisher Scientific, cat. 12634028), 10 mM HEPES (Thermo Fisher Scientific, cat. 15630080), 1X GlutaMAX supplement (Thermo Fisher Scientific, cat. 35050061), 0.1 mg/mL primocin (InvivoGen, San Diego, CA, cat. ant-pm-2), 10% defined fetal bovine serum, heat inactivated (HyClone Laboratories Inc., Logan, UT, cat. SH30070.03HI), 50% L-WRN conditioned media (ATCC, cat. CRL-3276), 1.25 mM N-Acetyl-L-cysteine (Sigma-Aldrich, cat. A9165), 10 mM nicotinamide (Sigma-Aldrich, cat. N0636), 1X B-27 supplement (Thermo Fisher Scientific, cat. 17504044), 1X N-2 supplement (Thermo Fisher Scientific, cat. […]

Several values for one entry are separate records, joined by “and”; a condition that tells them apart may be missing. Identical values can stand only once. A value given as a limit tells only on which side of the number the result lay.

In general, viability, T/C refers to the result in the treated group divided by that in the control group, in per cent. What is called IC50 is the concentration at which inhibition is half-maximal.
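Note: spheroids exposed to compounds for seven days before readout.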

For `C=CC(=O)N1CCN(c2nc(=O)n(-c3c(C)ccnc3C(C)C)c3nc(-c4c(O)cccc4F)c(F)cc23)C(C)C1` (stereo not given), the viability, T/C reads like this: (compound 0.0316 µM) 93% and 88.6% and 99.7%; (compound 0.1 µM) 91.5% and 84.4% and 100%; (compound 0.316 µM) 95.6% and 90.7% and 99.1%; (compound 1 µM) 96.8% and 92.5% and 105%; (compound 3.16 µM) 97.7% and 80.5% and 99.9%; (compound 10 µM) 98.6% and 103% and 108%. Moreover, the 50% inhibitory concentration (IC50) (curve of compound) is over 10 µM.

For `C=CCn1c(=O)c2cnc(Nc3ccc(N4CCN(C)CC4)cc3)nc2n1-c1cccc(C(C)(C)O)n1`, the viability, T/C (compound 0.00316 µM) was 97.3% and 99% and 101%; the viability, T/C (compound 0.01 µM) was 93.6% and 96.3% and 96.2%; the viability, T/C (compound 0.0316 µM) is 98.5% and 99.2% and 89.3%; the viability, T/C (compound 0.1 µM) is 97.7% and 104% and 90.1%; the viability, T/C (compound 0.316 µM) was 99.3% and 97.5% and 91.7%; the viability, T/C (compound 1 µM) is 81.2% (2×) and 83.4%. Further, the IC50 (curve of compound) was over 1 µM.

For `CC1COCCN1c1cc(-c2ccnn2C)c2ccnc(-c3ccn[nH]3)c2n1` (stereo not given), the viability, T/C (compound 0.0316 µM) is 97.4% and 94.7% and 96.7%; the viability, T/C (compound 0.1 µM) was 69.8% and 71.2% and 83.1%; the viability, T/C (compound 0.316 µM) was 51.1% and 45.3% and 54.1%; the viability, T/C (compound 1 µM) was 46.9% and 43.4% and 49.2%; the viability, T/C (compound 10 µM) is 43.8% and 39.4% and 49.2%.

With `CC1COCCN1c1cc(C2(S(C)(=N)=O)CC2)nc(-c2ccnc3[nH]ccc23)n1` (stereo not given), the viability, T/C is 100% and 99.8% and 96.6% (compound 0.0316 µM); 98.7% and 94.7% and 99.4% (compound 0.1 µM); 95.2% and 91.3% and 98.8% (compound 0.316 µM); 96% and 88% and 91.1% (compound 1 µM); 94.9% and 97.8% and 85.5% (compound 3.16 µM); 67.7% and 75.1% and 68.6% (compound 10 µM). Besides, the half-inhibitory concentration (IC50) (curve of compound) was over 10 µM.

Turning to `CCCS(=O)(=O)Nc1ccc(F)c(C(=O)c2c[nH]c3ncc(-c4ccc(Cl)cc4)cc23)c1F`, the viability, T/C by setting is: (compound 0.0316 µM) 97.4% and 77.9% and 99.4%; (compound 0.316 µM) 102% and 105% and 90%; (compound 1 µM) 103% and 87.8% and 100%. Moreover, under “curve of compound”, the IC50 was > 10 µM and 7.74 µM.

As to `CC[C@@]1(O)C(=O)OCc2c1cc1n(c2=O)Cc2cc3c(CN(C)C)c(O)ccc3nc2-1`, the viability, T/C is 102% and 87.1% and 100% (compound 0.000316 µM); 101% and 94.2% and 99% (compound 0.001 µM); 100% and 111% and 96.2% (compound 0.00316 µM); 92.8% and 100% and 106% (compound 0.01 µM); 95.1% and 96.1% and 93.2% (compound 0.0316 µM); 88.2% and 77.2% and 75.9% (compound 0.1 µM). Besides, for the setting “curve of compound”, the IC50 is over 0.1 µM.

Consider `CCc1c2c(nc3ccc(O)cc13)-c1cc3c(c(=O)n1C2)COC(=O)[C@]3(O)CC`, for which the viability, T/C is, setting by setting: (compound 0.00316 µM) 95.8% and 83.5% and 94.6%; (compound 0.01 µM) 85% and 74.5% and 81%; (compound 0.0316 µM) 71.9% and 75.1% and 71.4%; (compound 0.1 µM) 72.1% and 79.6% and 64.2%; (compound 0.316 µM) 63.3% and 81% and 57.8%; (compound 1 µM) 40.5% and 58.2% and 35.7%. Besides, the 50% inhibitory concentration (IC50) (curve of compound) was 0.627 µM and > 1 µM and 0.375 µM.

As to `CCc1cc2c(N3CCc4c(cc(Cn5ccnc5)cc4-c4cn(C)nc4C(F)(F)F)C3=O)ccnc2c(OC)n1`, the viability, T/C is, setting by setting: (compound 0.0316 µM) 96.6% and 87.7% and 94.8%; (compound 0.1 µM) 100% and 94.5% and 93.2%; (compound 0.316 µM) 102% and 101% and 87.4%; (compound 1 µM) 101% and 95% and 96%; (compound 3.16 µM) 107% and 95% and 90.8%; (compound 10 µM) 94.8% and 89.2% and 94.2%. The IC50 (curve of compound) is over 10 µM.

As for `CNCc1ccc(-c2[nH]c3cc(F)cc4c3c2CCNC4=O)cc1`, the viability, T/C was 95.3% and 101% and 103% (compound 0.0316 µM); 100% and 103% and 95.7% (compound 0.1 µM); 102% and 96.3% and 92.9% (compound 0.316 µM); 98.9% and 111% and 95.9% (compound 1 µM); 108% and 124% and 107% (compound 3.16 µM); 94.3% and 101% and 108% (compound 10 µM). The IC50 (curve of compound) is over 10 µM.

As for `COC1C(OC(N)=O)C(O)C(Oc2ccc3c(O)c(NC(=O)c4ccc(O)c(CC=C(C)C)c4)c(=O)oc3c2C)OC1(C)C` (stereo not given), the viability, T/C is, setting by setting: (compound 0.0316 µM) 102% [middle of 13 runs]; (compound 0.1 µM) 96.7% [middle of 13 runs]; (compound 0.316 µM) 101% [middle of 13 runs]; (compound 1 µM) 101% [middle of 13 runs]; (compound 3.16 µM) 100% [middle of 12 runs]; (compound 10 µM) 105% [middle of 13 runs]. For the same molecule, the IC50 (compound alone, run of 11/27/2023) was over 10 µM.

The values are drawn from PubChem BioAssay AID1963841 (Molecular Pharmacology Branch, DTP, NCI, 2024).
